Where two headings read alike, the source gives them in different places.
Assays:
[1] = target: T1, BSEP (Mus musculus, UniProt Q9QY30); assay: Inhibition of BSEP activity (transport of taurocholate) in mouse hepatocytes
T1 sequence (Q9QY30 1-1321): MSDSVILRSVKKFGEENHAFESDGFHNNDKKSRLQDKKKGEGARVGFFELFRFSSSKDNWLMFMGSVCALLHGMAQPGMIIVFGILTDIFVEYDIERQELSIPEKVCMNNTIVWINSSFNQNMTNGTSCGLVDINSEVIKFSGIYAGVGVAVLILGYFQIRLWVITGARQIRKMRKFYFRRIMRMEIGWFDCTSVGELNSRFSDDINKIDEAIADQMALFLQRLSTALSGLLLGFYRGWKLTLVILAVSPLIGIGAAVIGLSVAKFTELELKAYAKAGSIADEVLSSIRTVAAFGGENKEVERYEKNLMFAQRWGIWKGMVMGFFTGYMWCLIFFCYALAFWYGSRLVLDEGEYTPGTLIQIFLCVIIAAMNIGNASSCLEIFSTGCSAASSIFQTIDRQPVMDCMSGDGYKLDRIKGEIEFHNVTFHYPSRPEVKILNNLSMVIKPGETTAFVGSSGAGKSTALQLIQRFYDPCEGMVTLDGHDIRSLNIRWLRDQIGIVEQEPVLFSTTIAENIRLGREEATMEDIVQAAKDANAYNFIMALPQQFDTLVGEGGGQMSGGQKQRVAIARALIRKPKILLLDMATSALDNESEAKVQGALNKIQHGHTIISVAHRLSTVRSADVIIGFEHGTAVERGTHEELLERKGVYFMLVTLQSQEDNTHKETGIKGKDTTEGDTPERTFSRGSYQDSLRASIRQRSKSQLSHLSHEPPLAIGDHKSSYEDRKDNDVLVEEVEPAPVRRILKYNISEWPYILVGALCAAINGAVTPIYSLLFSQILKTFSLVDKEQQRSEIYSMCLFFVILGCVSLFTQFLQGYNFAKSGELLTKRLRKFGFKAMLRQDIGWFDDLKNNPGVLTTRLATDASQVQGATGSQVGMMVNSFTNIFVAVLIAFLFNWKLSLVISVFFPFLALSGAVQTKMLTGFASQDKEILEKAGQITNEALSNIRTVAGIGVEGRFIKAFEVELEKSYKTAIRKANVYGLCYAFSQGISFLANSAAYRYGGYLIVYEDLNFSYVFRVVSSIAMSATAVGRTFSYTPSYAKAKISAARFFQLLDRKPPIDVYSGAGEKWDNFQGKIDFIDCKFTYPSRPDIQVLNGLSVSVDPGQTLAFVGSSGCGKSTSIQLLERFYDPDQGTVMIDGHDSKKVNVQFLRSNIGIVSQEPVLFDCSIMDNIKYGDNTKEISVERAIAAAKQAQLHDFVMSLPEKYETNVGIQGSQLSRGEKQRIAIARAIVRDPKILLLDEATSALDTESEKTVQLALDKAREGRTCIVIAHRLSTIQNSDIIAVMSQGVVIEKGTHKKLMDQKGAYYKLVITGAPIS

[2] = target: BSEP (Macaca fascicularis, UniProt D2CFL3); assay: IC50 for inhibition of BSEP activity in monkey hepatocytes; assay type: cell-based; conditions: hepatocytes in suspension
Sequence of BSEP (Macaca fascicularis, UniProt D2CFL3) (D2CFL3 1-1323): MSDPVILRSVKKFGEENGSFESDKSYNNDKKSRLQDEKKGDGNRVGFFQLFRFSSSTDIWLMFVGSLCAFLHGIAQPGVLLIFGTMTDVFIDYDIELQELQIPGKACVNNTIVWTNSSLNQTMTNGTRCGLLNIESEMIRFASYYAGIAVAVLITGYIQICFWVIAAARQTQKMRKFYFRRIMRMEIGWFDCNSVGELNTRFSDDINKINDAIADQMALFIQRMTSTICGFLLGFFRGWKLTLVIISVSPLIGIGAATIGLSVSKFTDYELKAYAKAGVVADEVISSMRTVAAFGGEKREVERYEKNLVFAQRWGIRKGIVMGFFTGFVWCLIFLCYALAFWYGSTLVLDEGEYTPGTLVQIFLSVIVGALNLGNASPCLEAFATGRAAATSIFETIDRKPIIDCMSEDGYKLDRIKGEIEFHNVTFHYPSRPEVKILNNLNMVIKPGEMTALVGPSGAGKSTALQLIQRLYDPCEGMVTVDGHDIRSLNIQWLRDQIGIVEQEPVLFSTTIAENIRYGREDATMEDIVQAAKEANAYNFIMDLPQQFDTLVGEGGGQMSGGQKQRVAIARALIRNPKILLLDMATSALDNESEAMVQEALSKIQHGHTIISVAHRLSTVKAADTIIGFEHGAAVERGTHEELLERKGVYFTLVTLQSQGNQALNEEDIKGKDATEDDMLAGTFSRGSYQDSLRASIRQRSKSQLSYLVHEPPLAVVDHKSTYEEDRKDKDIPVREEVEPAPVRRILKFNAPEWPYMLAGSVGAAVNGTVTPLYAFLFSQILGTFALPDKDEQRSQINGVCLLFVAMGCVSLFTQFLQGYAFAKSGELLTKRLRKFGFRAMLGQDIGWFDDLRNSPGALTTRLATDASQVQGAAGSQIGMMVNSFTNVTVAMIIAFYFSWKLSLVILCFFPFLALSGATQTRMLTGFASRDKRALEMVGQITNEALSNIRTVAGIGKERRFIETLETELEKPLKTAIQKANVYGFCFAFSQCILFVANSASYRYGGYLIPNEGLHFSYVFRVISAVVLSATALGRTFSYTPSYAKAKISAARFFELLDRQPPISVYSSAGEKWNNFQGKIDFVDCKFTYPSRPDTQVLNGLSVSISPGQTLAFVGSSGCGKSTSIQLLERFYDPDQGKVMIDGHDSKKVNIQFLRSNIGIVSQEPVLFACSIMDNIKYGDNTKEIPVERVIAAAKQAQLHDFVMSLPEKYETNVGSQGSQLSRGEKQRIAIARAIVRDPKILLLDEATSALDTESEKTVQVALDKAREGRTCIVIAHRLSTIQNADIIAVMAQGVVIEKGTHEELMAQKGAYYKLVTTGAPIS
Description: (§1) Kinetic parameters were calculated using standard Michaelis-Menten kinetics. IC50 values were determined using Prism software (La Jolla, Calif.) or median-effect equation. [Chou et al., Theoretical basis, experimental design, and computerized simulation of synergism and antagonism in Drug Combination Studies. Pharmacological Reviews 58, 621, 2006]

[3] = target: T2, BSEP (Rattus norvegicus, UniProt O70127); assay: IC50 for inhibition of BSEP activity in rat hepatocytes; assay type: cell-based
T2 sequence (O70127 1-1321): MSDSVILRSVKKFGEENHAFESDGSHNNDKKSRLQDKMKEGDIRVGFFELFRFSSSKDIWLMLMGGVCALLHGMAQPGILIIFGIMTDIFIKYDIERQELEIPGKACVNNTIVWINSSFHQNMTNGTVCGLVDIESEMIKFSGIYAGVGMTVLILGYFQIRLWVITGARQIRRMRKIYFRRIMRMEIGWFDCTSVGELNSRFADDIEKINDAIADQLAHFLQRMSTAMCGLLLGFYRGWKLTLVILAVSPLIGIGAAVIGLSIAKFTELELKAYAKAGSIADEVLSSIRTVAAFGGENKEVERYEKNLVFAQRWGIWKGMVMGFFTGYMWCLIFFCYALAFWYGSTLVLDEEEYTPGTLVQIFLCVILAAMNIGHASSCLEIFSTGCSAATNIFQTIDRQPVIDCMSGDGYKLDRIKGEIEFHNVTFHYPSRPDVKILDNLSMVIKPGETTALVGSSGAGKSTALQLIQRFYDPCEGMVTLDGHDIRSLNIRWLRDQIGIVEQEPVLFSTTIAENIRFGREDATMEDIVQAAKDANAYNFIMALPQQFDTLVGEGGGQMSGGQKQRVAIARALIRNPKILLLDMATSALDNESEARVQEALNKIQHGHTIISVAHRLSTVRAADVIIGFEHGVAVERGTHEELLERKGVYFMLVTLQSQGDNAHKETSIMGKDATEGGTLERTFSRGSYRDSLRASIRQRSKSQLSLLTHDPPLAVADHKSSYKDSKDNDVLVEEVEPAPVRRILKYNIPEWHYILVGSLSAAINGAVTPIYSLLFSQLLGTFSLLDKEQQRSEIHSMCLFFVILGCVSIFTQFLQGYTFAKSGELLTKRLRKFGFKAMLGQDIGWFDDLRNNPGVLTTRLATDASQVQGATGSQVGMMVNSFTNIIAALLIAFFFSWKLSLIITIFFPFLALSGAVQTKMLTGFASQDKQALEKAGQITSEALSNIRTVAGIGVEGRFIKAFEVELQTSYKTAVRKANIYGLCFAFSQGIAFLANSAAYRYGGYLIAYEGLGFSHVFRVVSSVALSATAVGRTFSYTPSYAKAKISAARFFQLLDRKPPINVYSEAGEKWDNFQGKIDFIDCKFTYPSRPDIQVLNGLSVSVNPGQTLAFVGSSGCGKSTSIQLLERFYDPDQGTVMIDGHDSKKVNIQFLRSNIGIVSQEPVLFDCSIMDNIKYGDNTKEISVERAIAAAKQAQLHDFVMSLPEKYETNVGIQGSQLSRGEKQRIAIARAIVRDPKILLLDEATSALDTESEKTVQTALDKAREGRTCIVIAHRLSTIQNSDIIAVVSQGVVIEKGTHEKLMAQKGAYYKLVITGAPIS
Description: as §1

[4] = hepatocytes in suspension, probe taurocholate

SMILES: COC(=O)N[C@H](C(=O)N[C@@H](Cc1ccccc1)[C@@H](O)CN(Cc1ccc(-c2ccccn2)cc1)NC(=O)[C@@H](NC(=O)OC)C(C)(C)C)C(C)(C)C [Atazanavir, atazanavir]
- inhibition at 1 h, 1 μM [1, 4]: < 50%
- inhibition at 1 h, 10 μM [1, 4]: < 50%

SMILES: C[C@@H](Oc1cc(-c2cnn(C3CCNCC3)c2)cnc1N)c1c(Cl)ccc(F)c1Cl [Crizotinib, crizotinib]
- inhibition at 1 h, 1 μM [1, 4]: < 50%
- inhibition at 1 h, 10 μM [1, 4]: < 50%

SMILES: OC(Cn1cncn1)(Cn1cncn1)c1ccc(F)cc1F [Fluconazole, fluconazole]
- inhibition at 1 h, 1 μM [1, 4]: < 50%
- inhibition at 1 h, 10 μM [1, 4]: < 50%

SMILES: CC(=O)N1CCN(c2ccc(OCC3COC(Cn4ccnc4)(c4ccc(Cl)cc4Cl)O3)cc2)CC1 (stereo not shown) [Ketoconazole, ketoconazole]
- inhibition at 1 h, 1 μM [1, 4]: < 50%
- inhibition at 1 h, 10 μM [1, 4]: < 50%
- IC50 at 1 h [2]: 1 to 10 µM
- IC50 [3]: > 10 µM

SMILES: Cc1c(O)cccc1C(=O)N[C@@H](CSc1ccccc1)[C@H](O)CN1C[C@H]2CCCC[C@H]2C[C@H]1C(=O)NC(C)(C)C [Nelfinavir, nelfinavir]
- inhibition at 1 h, 1 μM [1, 4]: < 50%
- inhibition at 1 h, 10 μM [1, 4]: < 50%

SMILES: CC(C)NCC(O)COc1cccc2ccccc12 (stereo not shown) [Propranolol, propranolol]
- inhibition at 1 h, 1 μM [1, 4]: < 50%
- inhibition at 1 h, 10 μM [1, 4]: < 50%

SMILES: O=c1c(O)c(-c2ccc(O)c(O)c2)oc2cc(O)cc(O)c12 [Quercetin, quercetin]
- inhibition at 1 h, 1 μM [1, 4]: < 50%
- inhibition at 1 h, 10 μM [1, 4]: < 50%

SMILES: C=C[C@H]1C[N@@]2CC[C@H]1C[C@@H]2[C@@H](O)c1ccnc2ccc(OC)cc12 [Quinidine, quinidine]
- inhibition at 1 h, 1 μM [1, 4]: < 50%
- inhibition at 1 h, 10 μM [1, 4]: < 50%

SMILES: CO[C@H]1/C=C/O[C@@]2(C)Oc3c(C)c(O)c4c(O)c(c(/C=N/N5CCN(C)CC5)c(O)c4c3C2=O)NC(=O)/C(C)=C\C=C\[C@H](C)[C@H](O)[C@@H](C)[C@@H](O)[C@@H](C)[C@H](OC(C)=O)[C@@H]1C [Rifampicin]
- IC50 at 1 h [2]: < 1 µM
- IC50 [3]: 1 to 10 µM

SMILES: S=P(N1CC1)(N1CC1)N1CC1 [Thiotepa, thiotepa]
- inhibition at 1 h, 1 μM [1]: < 50%
- inhibition at 1 h, 10 μM [1]: < 50%

SMILES: Cc1c(C)c2c(c(C)c1O)CCC(C)(COc1ccc(CC3SC(=O)NC3=O)cc1)O2 (stereo not shown) [Troglitazone, troglitazone]
- inhibition at 1 h, 1 μM [1, 4]: < 50%
- inhibition at 1 h, 10 μM [1, 4]: < 50%
- IC50 at 1 h [2]: 1 to 10 µM
- IC50 [3]: 1 to 10 µM

SMILES: CC[C@]1(O)C[C@@H]2CN(CCc3c([nH]c4ccccc34)[C@@](C(=O)OC)(c3cc4c(cc3OC)N(C)[C@H]3[C@@](O)(C(=O)OC)[C@H](OC(C)=O)[C@]5(CC)C=CCN6CC[C@]43[C@@H]65)C2)C1 [Vinblastine, vinblastine]
- inhibition at 1 h, 1 μM [1, 4]: < 50%
- inhibition at 1 h, 10 μM [1, 4]: < 50%
